Measurements: patent publication US5945508A, “Substance P treatment for immunostimulation” (priority 1997, dated 1999)

Legend:
[1] = system: lymphocyte subpopulations; assay: Flow cytometric analyses (FACS); type: in vivo, C57B16 mice
Protocol: (§1) At 24 hours after the last exposure, the animals were sacrificed and the effects of exposure on the immune system examined. Immune organs (spleen, thymus, blood, lymph nodes and bone marrow) were recovered and analyzed for effects on organ weight, total cell numbers, immune cell populations (by differentials), and lymphocyte subpopulations (by flow cytometry). Assays were also performed to examine the effects of exposure on immune function. […] Similar effects on immune cell subpopulations were also observed in lymph nodes. In the thymus it appeared that the immature CD4^+ CD8^+ cells were differentially lost due to exposure. […] However, these effects are prevented or ameliorated by treatment of the animals with Substance P.
One- and two-color FACS analyses are performed using a Becton-Dickinson FACStar Plus flow cytometer. Cells are stained with the indicated monoclonal antibodies according to standard procedures (Harris et al., id). Cells alone and cells reacted with conjugated isotype control, irrelevant mAbs are used as controls. Data is presented as the percentage of cells staining positive for each individual mAb.

immune system organs = assay: Organ weight and total cell recovery; type: in vivo, C57B16 mice; parameters: Spleen Cell Number / Thymus Cell Number / LN Cell Number / BM Cell Number: scale not given here; Spleen Weight / Thymus Weight: unit not given here
Protocol: as §1
For each of the immune system organs (spleen, lymph nodes and thymus) the wet weight is determined after removal using a microbalance. After processing of the organs into single cell suspensions the cell numbers and viabilities are determined using trypan blue staining. Histochemical differentials are performed at this time. Cell numbers and viabilities are again determined after centrifugation of the cell suspensions through density gradients to obtain mononuclear cells.

[2] = JP-8 1000 mg/m^3 + SP, nSP (1 nM), CP or RP

Question: For `COc1ccccc1CC(=N)N1C[C@@H]2C(=O)CCC(c3ccccc3)(c3ccccc3)[C@@H]2C1` [RP, reference compound], which “BM CD3 positive cells” value [1, 2] is on record?
Answer: 12%

Question: What about the “BM CD4 positive cells” value [1, 2] of the same compound?
Answer: 6%

Question: And the “BM CD8 positive cells” value [1, 2]?
Answer: 5%

Question: And the “BM CD45 positive cells” value [1, 2]?
Answer: 42%

Question: What about the “BM MAC1 positive cells” value [1, 2] of the same compound?
Answer: 10%

Question: And the “LN CD3 positive cells” value [1, 2]?
Answer: 96%

Question: What about the “LN CD4 positive cells” value [1, 2] of the same compound?
Answer: 41%

Question: What about the “LN CD8 positive cells” value [1, 2] of the same compound?
Answer: 29%

Question: And the “LN CD45 positive cells” value [1, 2]?
Answer: 18%

Question: And the “LN MAC1 positive cells” value [1, 2]?
Answer: 1%

Question: What about the “PBL CD3 positive cells” value [1, 2] of the same compound?
Answer: 71%

Question: And the “PBL CD4 positive cells” value [1, 2]?
Answer: 18%

Question: What about the “PBL CD8 positive cells” value [1, 2] of the same compound?
Answer: 10%

Question: What about the “PBL CD45 positive cells” value [1, 2] of the same compound?
Answer: 38%

Question: And the “PBL MAC1 positive cells” value [1, 2]?
Answer: 9%

Question: And the “Spleen CD3 positive cells” value [1, 2]?
Answer: 47%

Question: And the “Spleen CD4 positive cells” value [1, 2]?
Answer: 16%

Question: What about the “Spleen CD8 positive cells” value [1, 2] of the same compound?
Answer: 5%

Question: And the “Spleen CD45 positive cells” value [1, 2]?
Answer: 39%

Question: And the “Spleen MAC1 positive cells” value [1, 2]?
Answer: 1%

Question: What about the “Thymus CD3 positive cells” value [1, 2] of the same compound?
Answer: 16%

Question: What about the “Thymus DN cells” value [1, 2] of the same compound?
Answer: 10%

Question: And the “Thymus DP cells” value [1, 2]?
Answer: 70%

Question: And the “Thymus SP4 cells” value [1, 2]?
Answer: 12%

Question: And the “Thymus SP8 cells” value [1, 2]?
Answer: 8%

Question: And the “BM Cell Number” value (immune system organs; [2])?
Answer: 27

Question: And the “LN Cell Number” value (immune system organs; [2])?
Answer: 6.8

Question: And the “Spleen Cell Number” value (immune system organs; [2])?
Answer: 37

Question: And the “Spleen Weight” value (immune system organs; [2])?
Answer: 0.10

Question: What about the “Thymus Cell Number” value (immune system organs; [2]) of the same compound?
Answer: 72

Question: What about the “Thymus Weight” value (immune system organs; [2]) of the same compound?
Answer: 0.03

Question: Which results are given for nSP: 1 nanomolar substance P?
Answer: BM CD3 positive cells [1, 2]: 13%; BM CD4 positive cells [1, 2]: 10%; BM CD8 positive cells [1, 2]: 3%; BM CD45 positive cells [1, 2]: 43%; BM MAC1 positive cells [1, 2]: 16%; LN CD3 positive cells [1, 2]: 95%; LN CD4 positive cells [1, 2]: 42%; LN CD8 positive cells [1, 2]: 25%; LN CD45 positive cells [1, 2]: 23%; LN MAC1 positive cells [1, 2]: 0%; PBL CD3 positive cells [1, 2]: 78%; PBL CD4 positive cells [1, 2]: 25%; PBL CD8 positive cells [1, 2]: 8%; PBL CD45 positive cells [1, 2]: 29%; PBL MAC1 positive cells [1, 2]: 2%; Spleen CD3 positive cells [1, 2]: 60%; Spleen CD4 positive cells [1, 2]: 15%; Spleen CD8 positive cells [1, 2]: 5%; Spleen CD45 positive cells [1, 2]: 41%; Spleen MAC1 positive cells [1, 2]: 1%; Thymus CD3 positive cells [1, 2]: 25%; Thymus DN cells [1, 2]: 7%; Thymus DP cells [1, 2]: 69%; Thymus SP4 cells [1, 2]: 16%; Thymus SP8 cells [1, 2]: 7%; BM Cell Number (immune system organs; [2]): 31; LN Cell Number (immune system organs; [2]): 10.8; Spleen Cell Number (immune system organs; [2]): 58; Spleen Weight (immune system organs; [2]): 0.11; Thymus Cell Number (immune system organs; [2]): 78; Thymus Weight (immune system organs; [2]): 0.04

Question: How did the “BM CD3 positive cells” value [1, 2] turn out when `COc1ccccc1CN[C@H]1C2CCN(CC2)[C@H]1C(c1ccccc1)c1ccccc1` [CP, reference compound] was run?
Answer: 14%

Question: What about the “BM CD4 positive cells” value [1, 2] of the same compound?
Answer: 7%

Question: And the “BM CD8 positive cells” value [1, 2]?
Answer: 3%

Question: What about the “BM CD45 positive cells” value [1, 2] of the same compound?
Answer: 41%

Question: What about the “BM MAC1 positive cells” value [1, 2] of the same compound?
Answer: 26%

Question: What about the “LN CD3 positive cells” value [1, 2] of the same compound?
Answer: 95%

Question: And the “LN CD4 positive cells” value [1, 2]?
Answer: 35%

Question: What about the “LN CD8 positive cells” value [1, 2] of the same compound?
Answer: 23%

Question: And the “PBL CD3 positive cells” value [1, 2]?
Answer: 50%

Question: What about the “PBL CD4 positive cells” value [1, 2] of the same compound?
Answer: 20%

Question: What about the “PBL CD8 positive cells” value [1, 2] of the same compound?
Answer: 15%

Question: And the “PBL CD45 positive cells” value [1, 2]?
Answer: 27%

Question: And the “PBL MAC1 positive cells” value [1, 2]?
Answer: 6%

Question: What about the “Spleen CD3 positive cells” value [1, 2] of the same compound?
Answer: 34%

Question: And the “Spleen CD4 positive cells” value [1, 2]?
Answer: 16%

Question: And the “Spleen CD8 positive cells” value [1, 2]?
Answer: 9%

Question: And the “Spleen CD45 positive cells” value [1, 2]?
Answer: 26%

Question: What about the “Spleen MAC1 positive cells” value [1, 2] of the same compound?
Answer: 10%

Question: And the “Thymus CD3 positive cells” value [1, 2]?
Answer: 17%

Question: And the “Thymus DN cells” value [1, 2]?
Answer: 12%

Question: What about the “Thymus DP cells” value [1, 2] of the same compound?
Answer: 65%

Question: And the “Thymus SP4 cells” value [1, 2]?
Answer: 17%

Question: What about the “Thymus SP8 cells” value [1, 2] of the same compound?
Answer: 7%

Question: What about the “BM CD3 positive cells” value ([1]; dose 0 (no JP-8) + SP or CP) of the same compound?
Answer: 16%

Question: What about the “BM CD4 positive cells” value ([1]; dose 0 (no JP-8) + SP or CP) of the same compound?
Answer: 9%

Question: And the “BM CD8 positive cells” value ([1]; dose 0 (no JP-8) + SP or CP)?
Answer: 7%

Question: What about the “BM CD45 positive cells” value ([1]; dose 0 (no JP-8) + SP or CP) of the same compound?
Answer: 27%

Question: And the “BM MAC1 positive cells” value ([1]; dose 0 (no JP-8) + SP or CP)?
Answer: 33%

Question: What about the “LN CD3 positive cells” value ([1]; dose 0 (no JP-8) + SP or CP) of the same compound?
Answer: 49%

Question: And the “LN CD4 positive cells” value ([1]; dose 0 (no JP-8) + SP or CP)?
Answer: 25%

Question: And the “LN CD8 positive cells” value ([1]; dose 0 (no JP-8) + SP or CP)?
Answer: 12%

Question: And the “LN CD45 positive cells” value ([1]; dose 0 (no JP-8) + SP or CP)?
Answer: 15%

Question: What about the “LN MAC1 positive cells” value ([1]; dose 0 (no JP-8) + SP or CP) of the same compound?
Answer: 1%

Question: What about the “PBL CD3 positive cells” value ([1]; dose 0 (no JP-8) + SP or CP) of the same compound?
Answer: 72%

Question: And the “PBL CD4 positive cells” value ([1]; dose 0 (no JP-8) + SP or CP)?
Answer: 29%

Question: And the “PBL CD8 positive cells” value ([1]; dose 0 (no JP-8) + SP or CP)?
Answer: 13%

Question: And the “PBL CD45 positive cells” value ([1]; dose 0 (no JP-8) + SP or CP)?
Answer: 12%

Question: And the “PBL MAC1 positive cells” value ([1]; dose 0 (no JP-8) + SP or CP)?
Answer: 7%

Question: And the “Spleen CD3 positive cells” value ([1]; dose 0 (no JP-8) + SP or CP)?
Answer: 32%

Question: What about the “Spleen CD4 positive cells” value ([1]; dose 0 (no JP-8) + SP or CP) of the same compound?
Answer: 21%

Question: And the “Spleen CD8 positive cells” value ([1]; dose 0 (no JP-8) + SP or CP)?
Answer: 7%

Question: And the “Spleen CD45 positive cells” value ([1]; dose 0 (no JP-8) + SP or CP)?
Answer: 24%

Question: And the “Spleen MAC1 positive cells” value ([1]; dose 0 (no JP-8) + SP or CP)?
Answer: 3%

Question: And the “Thymus CD3 positive cells” value ([1]; dose 0 (no JP-8) + SP or CP)?
Answer: 18%

Question: What about the “Thymus DN cells” value ([1]; dose 0 (no JP-8) + SP or CP) of the same compound?
Answer: 13%

Question: And the “Thymus DP cells” value ([1]; dose 0 (no JP-8) + SP or CP)?
Answer: 75%

Question: What about the “Thymus SP4 cells” value ([1]; dose 0 (no JP-8) + SP or CP) of the same compound?
Answer: 12%

Question: What about the “Thymus SP8 cells” value ([1]; dose 0 (no JP-8) + SP or CP) of the same compound?
Answer: 3%

Question: What about the “BM Cell Number” value (immune system organs; [2]) of the same compound?
Answer: 22

Question: And the “LN Cell Number” value (immune system organs; [2])?
Answer: 7.1

Question: What about the “Spleen Cell Number” value (immune system organs; [2]) of the same compound?
Answer: 7

Question: What about the “Spleen Weight” value (immune system organs; [2]) of the same compound?
Answer: 0.16

Question: What about the “Thymus Cell Number” value (immune system organs; [2]) of the same compound?
Answer: 75

Question: And the “Thymus Weight” value (immune system organs; [2])?
Answer: 0.12

Question: What about the “BM Cell Number” value (immune system organs; dose 0 (no JP-8) + SP or CP) of the same compound?
Answer: 29

Question: And the “LN Cell Number” value (immune system organs; dose 0 (no JP-8) + SP or CP)?
Answer: 9.8

Question: What about the “Spleen Cell Number” value (immune system organs; dose 0 (no JP-8) + SP or CP) of the same compound?
Answer: 16

Question: What about the “Spleen Weight” value (immune system organs; dose 0 (no JP-8) + SP or CP) of the same compound?
Answer: 0.12

Question: What about the “Thymus Cell Number” value (immune system organs; dose 0 (no JP-8) + SP or CP) of the same compound?
Answer: 50

Question: What about the “Thymus Weight” value (immune system organs; dose 0 (no JP-8) + SP or CP) of the same compound?
Answer: 0.12
